Tests used:
[1] = Radiochemical purity (RCP) and [18F]fluoride of formulated [18F]flurpiridaz during storage (radio TLC or HPLC); format: physicochemical
Method: Radiochemical purity (RCP) is determined using radio TLC or HPLC and can be defined as the ratio of the (radio-labelled) drug substance peak to the total (radio-labelled) peaks in the chromatogram. If one manufactures a radiopharmaceutical with high radioactive concentration (RAC), the drop in RCP during storage is likely to be higher than at lower RAC due to more radiolysis. High radioactivity results in the drug substance destroying itself (i.e. radiolysis). The most efficient stabilizer can be identified by preparing different formulations of radiopharmaceuticals at similar RAC and comparing the drop in RCP over time, typically 8-10 hours for ^18F compounds.
The first 45 mL product vial was composed of water (42 mL), ethanol (3 mL), calcium disodium edetate (0.25 mg/mL), ascorbic acid (50 mg/mL) and sodium hydroxide (7.5 mg/mL). […]

[2] = Aqueous solubility of flurpiridaz with HPbCD; format: physicochemical

radiostability ([1]; 30 mg/mL ascorbic acid and 40 mg/mL HPbCD vs 50 mg/mL ascorbic acid without HPbCD): equal or better
change in RCP over 4 to 10 h (FIG. 2) ([1]; 30 to 50 mg/mL ascorbic acid (pH ~6), with or without 40-47 mg/mL HPbCD, ca. 7% (v/v) ethanol, 0-21% (v/v) oxygen headspace): reduction
aqueous solubility [2]: improves
Structure (SMILES): CC(C)(C)n1ncc(OCc2ccc(COCCF)cc2)c(Cl)c1=O [[^18F]flurpiridaz, flurpiridaz]
